Patent US9394291B2, “Benzoxazinone amides as mineralocorticoid receptor modulators” (AstraZeneca AB, priority 2014, dated 2016)
pIC50: −log10 of the molar value. Like-named read-outs stand apart in the source and are kept apart here.

Legend:
[1] = biological target: T1, human MR LBD (Homo sapiens (Human), UniProt P08235); experiment: Mineralocorticoid Binding, Test A1 (SPA beads, 3H-aldosterone displacement); settings: displacement of 5 nM 3H-aldosterone, MBP-MR LBD/P23 lysate
[2] = biological target: T2, MR (UAS-MR-bla HEK293 cells) (Homo sapiens, UniProt P08235); experiment: Mineralocorticoid Cellular Reporter Gene Assay, Test B1 (0.25 nM aldosterone)
T2 sequence (P08235 whole entry, looked up): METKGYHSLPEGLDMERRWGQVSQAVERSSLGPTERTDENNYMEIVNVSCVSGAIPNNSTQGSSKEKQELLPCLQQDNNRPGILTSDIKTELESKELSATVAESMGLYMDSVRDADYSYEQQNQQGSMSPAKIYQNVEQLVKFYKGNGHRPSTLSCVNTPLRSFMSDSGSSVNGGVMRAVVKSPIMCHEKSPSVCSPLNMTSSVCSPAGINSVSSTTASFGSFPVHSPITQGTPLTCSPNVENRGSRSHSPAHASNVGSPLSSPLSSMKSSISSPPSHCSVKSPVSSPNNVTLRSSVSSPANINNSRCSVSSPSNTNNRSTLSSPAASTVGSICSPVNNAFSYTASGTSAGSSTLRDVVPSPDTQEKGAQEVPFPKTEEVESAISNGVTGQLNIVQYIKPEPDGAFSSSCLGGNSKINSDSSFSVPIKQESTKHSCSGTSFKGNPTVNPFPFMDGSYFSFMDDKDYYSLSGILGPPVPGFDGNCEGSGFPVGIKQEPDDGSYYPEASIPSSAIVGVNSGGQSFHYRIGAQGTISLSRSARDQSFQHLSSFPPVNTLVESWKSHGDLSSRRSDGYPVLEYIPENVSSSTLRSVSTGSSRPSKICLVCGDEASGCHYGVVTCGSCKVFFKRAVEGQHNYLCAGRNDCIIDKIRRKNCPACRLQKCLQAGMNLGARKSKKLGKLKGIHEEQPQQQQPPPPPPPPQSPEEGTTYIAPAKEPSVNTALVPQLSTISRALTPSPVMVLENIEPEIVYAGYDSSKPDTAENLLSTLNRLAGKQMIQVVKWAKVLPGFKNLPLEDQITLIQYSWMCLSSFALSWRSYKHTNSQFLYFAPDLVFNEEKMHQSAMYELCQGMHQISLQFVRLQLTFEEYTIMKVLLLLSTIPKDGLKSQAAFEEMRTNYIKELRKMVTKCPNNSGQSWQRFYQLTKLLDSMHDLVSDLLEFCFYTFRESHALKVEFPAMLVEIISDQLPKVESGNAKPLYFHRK

[3] = biological target: T2, MR (UAS-MR-bla HEK293 cells); experiment: cell-based
[4] = biological target: T1, human MR LBD; settings: read-out: Test A2 IC50; displacement of 5 nM 3H-aldosterone, MBP-MR LBD/P23 lysate, Imaging beads
Procedure: In order to identify binding to the human MR LBD a scintillation proximity assay (SPA) was adapted to the 384-well format. The MR-LBD (amino acids T729-K985) was expressed as N-terminal fusion with maltose binding protein in Hi5 insect cells by co-infection with recombinant MBP-MR LBD and P23 baculoviruses and crude protein lysate was used in the assay.
Briefly, in Test A1 the assay was run in 384 well format in 10 mM Tris-HCl, pH 7.5, 0.5 mM EDTA 20 mM NaMoO4, 0.1 mM DTT and 10% glycerol at rt. Compounds were tested in a 7 (Test A1) or 10 (Test A2) concentration response curve ranging from 10 nM to 10 μM (Test A1) or 1 nM to 37 μM (Test A2). Compounds were spotted at the bottom of a well of a 384-well PE Opti-Plate to yield final DMSO concentrations in the assay of 2%. Pre-made MBP-MR/P23 lysate: ^3H-aldosterone mix (final assay concentration 7 μg/mL MBP-MR LBD/P23 lysate; 5 nM aldosterone) was added onto the top of the spotted compound and preincubated for 1 h at RT. […] The inhibition of the scintillation signal by displacement of the bound ^3H-aldosterone by test compounds is measured by scintillation counting using a Microbeta Trilux (Wallac) (Test A1) or a by CCD camera detection using a LEADseeker (PerkinElmer) (Test A2).

T1 sequence (P08235 729-984 limits assumed): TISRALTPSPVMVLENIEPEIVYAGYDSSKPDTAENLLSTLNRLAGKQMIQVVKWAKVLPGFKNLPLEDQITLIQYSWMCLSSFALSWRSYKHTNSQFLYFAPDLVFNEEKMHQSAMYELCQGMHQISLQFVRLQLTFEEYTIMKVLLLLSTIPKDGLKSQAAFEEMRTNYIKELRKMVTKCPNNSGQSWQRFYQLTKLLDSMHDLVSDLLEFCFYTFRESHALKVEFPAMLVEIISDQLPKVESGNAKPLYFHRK

Structure (SMILES) | pIC50 [1] | pIC50 [2] | pIC50 [3] | pIC50 [4] | inhibition at 100 µM ([2]; HEK293, read-out: Test B1, % at 100 μM) [%]
NC(=O)CC1COc2ccccc2N1C(=O)c1ccc2c(c1)NC(=O)CO2 (stereo not shown) [Example 1] | 5.85 | 5.68 | 6.21 | 5.54 | 
CNC(=O)C[C@@H]1COc2cc(F)ccc2N1C(=O)c1ccc2c(c1)NC(=O)CO2 [Example 4b, 2-{(3R)-7-Fluoro-4-[(3-oxo-3,4-dihydro-2H-1,4-benzoxazin-6-yl)carbonyl]-3,4-dihydro-2H-1,4-benzoxazin-3-yl}-N-methylacetamide] |  |  |  |  | 35
NC(=O)C[C@H]1COc2cc(Br)ccc2N1C(=O)c1ccc2c(c1)NC(=O)CO2 [Example 7, 2-{(3S)-7-Bromo-4-[(3-oxo-3,4-dihydro-2H-1,4-benzoxazin-6-yl)carbonyl]-3,4-dihydro-2H-1,4-benzoxazin-3-yl}acetamide] | 8.02 | 7.35 |  |  | 
